Assay results reported in patent EP4563149A1, “LURBINECTEDIN, ECUBECTEDIN AND A RELATED COMPOUND FOR USE IN THE TREATMENT OF SKIN CANCERS” (Pharma Mar, S.A., priority 2023, dated 2025).
Where two headings read alike, the source gives them in different places.

Key:
[1] = tested on: Hermes3A; test: Cell viability assay (PrestoBlue), 72h; conditions: for sensitivity of non-cancerous Hermes3A immortalized melanocytes compared with the melanoma cells: Hermes3A versus melanoma cells; for IC50: Homo sapiens, Melanocyte, 72 h
Protocol: Cells were grown at 37°C in 5% CO2 (10% for Hermes 3A) and were regularly checked for mycoplasma contamination. […] Melanoma IGR cell lines (IGR37 and IGR39) were grown in RPMI w/o HEPES (Gibco, Invitrogen) supplemented with 15% FCS and gentamycin.
(§6) To determine the IC50 (half maximal inhibitory concentration) of these cells to various inhibitors, cell viability assays were performed.
(§7) After 72h of treatment with different concentrations of the compounds, cells were treated with PrestoBlue reagent according to the manufacturer's instructions. The absorbance per well was measured with a Cellinsight CX5 microplate reader. Data were analyzed using Prism9 statistical software.

[2] = tested on: LOX-IMVI melanoma xenografts; conditions: 1.2 mg/kg intravenous
Protocol: (§1) Female athymic nu/nu mice (Harlan Laboratories Models, S.L. Barcelona, Spain or Envigo, Spain) were utilized for all experiments. Animal were housed in individually ventilated cages Sealsafe® Plus, Techmplast S.P.A.), up to ten per cage on a 12-hour light-dark cycle at 21-23 °C and 40-60 % humidity. Mice were allowed free access to irradiated standard rodent diet (Tecklad 2914C) and sterilized water. Animals were acclimated for at least 5 days prior to tumor implantation with a tumor cell suspension.
(§2) The cell line used are: • 501mel • IGR-37 • SK-Mel-28 • WM-266-4 • LOX-IMVI • 501mel^Vemur
(§3) In xenograft studies with cell lines: • Tumour volume was calculated using the equation […], where a: length (longest diameter) and b: width (shortest diameter) were measured in mm by using digital caliper (Fowler Sylvac, S235PAT). Tumour dimensions and body weights were recorded 2-3 times per week starting from the first day of treatment. • When tumors reached ca. 150-250 mm^3, tumour bearing animals (N = 8-10/group) were randomly allocated into the treatment groups, based on body weight and tumour measurements by using NewLab Oncology Software (version 2.25.06.00). • Comparison between median tumour volume of treated and placebo groups was used for evaluation of the antitumoural efficacy. • Animals were euthanized when their tumours reached ca. 1,500 mm^3 and/or severe necrosis was seen.
(§4) Treatments producing >20 % lethality and/or 20% net body weight loss were considered toxic.
(§5) In these experiments, PM14 and Compound IA, as well as placebo, were intravenously administered once per week for 3 consecutive weeks, on days 0, 7 and 14, whenever it was possible.
Tumour volume evaluation in LOX-IMVI melanoma xenografts with PM14 and Compound IA and placebo.

[3] = tested on: SKMEL-28; test: Cell viability assay (PrestoBlue), 72h; conditions: Homo sapiens, SK-MEL-28, 72 h
Protocol: (§8) Cells were grown at 37°C in 5% CO2 (10% for Hermes 3A) and were regularly checked for mycoplasma contamination. […] Melanoma cell lines 501mel and SKmel28 were grown in RPMI w/o HEPES (Gibco, Invitrogen) supplemented with 10% FCS and gentamycin. Vemurafenib-resistant cells (501melVemuR and MM074VemuR) were additionally supplemented with 1.5 µM of vemurafenib. Melanoma IGR cell lines (IGR37 and IGR39) were grown in RPMI w/o HEPES (Gibco, Invitrogen) supplemented with 15% FCS and gentamycin.
as §6, §7

[4] = tested on: 501 mel^Vemur cell line; conditions: 1.2 mg/kg intravenous
Protocol: as §1, §2, §3, §4, §5

[5] = tested on: MM074 melanospheres; test: Melanosphere apoptosis (AnnexinV-APC / propidium iodide); assay type: cell-based, human; conditions: 72h
Protocol: MM074 proliferative/differentiated cell line were seeded (5×10^4 cells) in ultra-low attachment hydrogel-layered 96 well plates in KO DMEM medium supplemented with 20% KSR, AANE, 2 mM Glutamax, Penicillin/Streptomycin and 100 uM Beta-mercaptoethanol. To allow for melanosphere formation, cells were left to grow for 4 days before drug treatment.
For apoptosis assays with 3D-grown melanoma cells, TrypLe Select 10x reagent (Gibco) was used to dissociate melanospheres to obtain single-cell suspensions. These cells were incubated with AnnexinV-APC (Biolegend) and Propidium Iodide (PI, Biolegend). With bivariant dot plots, it was distinguished between viable (AnnexinV-/PI-), early apoptotic (AnnexinV+/PI-), late apoptotic (AnnexinV+/PI+) and necrotic cells (AnnexinV-/PI+).

[6] = tested on: MM074; test: Cell viability assay (PrestoBlue), 72h; conditions: Homo sapiens
Protocol: as §8, §6, §7

[7] = tested on: 501mel melanoma xenografts; conditions: 1.2 mg/kg intravenous
Protocol: as §1, §2, §3, §4, §5
Table 4. Tumour volume evaluation in 501mel melanoma xenografts with PM14 and Compound IA and placebo.

[8] = tested on: melanoma cell cultures or cell lines; test: Clonogenic assay; assay type: cell-based, human; conditions: 48h at IC50 concentrations, then 10 days without drug
Protocol: Based on the cell viability assays conducted above, the efficacy of lurbinectedin, PM14 or Compound IA on melanoma cell proliferation was investigated. Initially, a clonogenic assay was performed. Cells were drug-treated at IC50 concentrations during 48h before seeding 1×10^3 or 2×10^3 cells in 6-well plates without drug, wherein they grew for 10 days to allow for colony formation. Afterwards, cells were fixed for 10min with 4% formaldehyde solution, washed once with PBS and stained with Crystal Violet solution 0.2% for 15 min. The wells were finally washed twice with deionized water, air dried, scanned and analyzed with Fiji software to count the number of colonies.

[9] = tested on: melanoma cells; test: Cell proliferation by CellTrace Violet flow cytometry; assay type: cell-based, human; conditions: IC50 concentrations, compared to DMSO
Protocol: After 48h of incubation, cells were rinsed and incubated with AnnexinV-APC (BD Biosciences). Cell proliferation and apoptosis were detected on a BD LSRFortessaTM Flow Cytometer. Data were analyzed with FlowJo software. To define slow proliferating or apoptotic cells: it was considered that slow proliferating cells represented the 30% of cells with the highest concentration of CellTrace Violet signal in the DMSO control. […] For apoptotic cells, it was considered the 20% of cells with the highest signal of AnnexinV-APC in the DMSO control.

## COc1c(C)cc2c(c1O)[C@@H]1[C@@H]3[C@@H]4SC[C@]5(N[C@H](CO)Cc6c5oc5ccccc65)C(=O)OC[C@@H](c5c6c(c(C)c(OC(C)=O)c54)OCO6)N3[C@@H](O)[C@H](C2)N1C [Compound IA]
[1]
  sensitivity of non-cancerous Hermes3A immortalized melanocytes compared with the melanoma cells: less sensitive
  IC50: 4.93 nM
[2]; days 0, 7 and 14, day 0
  Median Tumour Volume: 186.2 mm^3
[2]; days 0, 7 and 14, day 2
  Median Tumour Volume: 196.3 mm^3
[2]; days 0, 7 and 14, day 4
  Median Tumour Volume: 138.7 mm^3
[2]; days 0, 7 and 14, day 7
  Median Tumour Volume: 106.8 mm^3
[2]; days 0, 7 and 14, day 9
  Median Tumour Volume: 87.8 mm^3
[2]; days 0, 7 and 14, day 11
  Median Tumour Volume: 56 mm^3
[2]; days 0, 7 and 14, day 14
  Median Tumour Volume: 53.5 mm^3
[2]; days 0, 7 and 14, day 16
  Median Tumour Volume: 54.7 mm^3
[2]; days 0, 7 and 14, day 18
  Median Tumour Volume: 51.4 mm^3
[2]; days 0, 7 and 14, day 21
  Median Tumour Volume: 71.2 mm^3
[2]; days 0, 7 and 14, day 23
  Median Tumour Volume: 99.9 mm^3
[2]; days 0, 7 and 14, day 25
  Median Tumour Volume: 132 mm^3
[2]; days 0, 7 and 14, day 28
  Median Tumour Volume: 597.7 mm^3
[2]; days 0, 7 and 14, day 30
  Median Tumour Volume: 1,158.4 mm^3
[2]; days 0, 7 and 14, day 32
  Median Tumour Volume: 1,098.3 mm^3
[2]; days 0, 7 and 14, day 35
  Median Tumour Volume: 968.8 mm^3
[2]; days 0, 7 and 14, day 37
  Median Tumour Volume: 1,375.6 mm^3
[3]
  IC50: 1.74 nM
[4]; days 0, 7 and 14, day 0
  Median Tumour Volume: 160.3 mm^3
[4]; days 0, 7 and 14, day 2
  Median Tumour Volume: 249 mm^3
[4]; days 0, 7 and 14, day 4
  Median Tumour Volume: 306.8 mm^3
[4]; days 0, 7 and 14, day 7
  Median Tumour Volume: 378.8 mm^3
[4]; days 0, 7 and 14, day 9
  Median Tumour Volume: 417.2 mm^3
[4]; days 0, 7 and 14, day 11
  Median Tumour Volume: 453.7 mm^3
[4]; days 0, 7 and 14, day 14
  Median Tumour Volume: 490.8 mm^3
[4]; days 0, 7 and 14, day 16
  Median Tumour Volume: 517.4 mm^3
[4]; days 0, 7 and 14, day 18
  Median Tumour Volume: 572.1 mm^3
[4]; days 0, 7 and 14, day 21
  Median Tumour Volume: 666.9 mm^3
[4]; days 0, 7 and 14, day 23
  Median Tumour Volume: 703.5 mm^3
[4]; days 0, 7 and 14, day 25
  Median Tumour Volume: 739.3 mm^3
[4]; days 0, 7 and 14, day 28
  Median Tumour Volume: 861.2 mm^3
[4]; days 0, 7 and 14, day 30
  Median Tumour Volume: 986.4 mm^3
[4]; days 0, 7 and 14, day 35
  Median Tumour Volume: 997.4 mm^3
[4]; days 0, 7 and 14, day 42
  Median Tumour Volume: 900.1 mm^3
[4]; days 0, 7 and 14, day 44
  Median Tumour Volume: 982.3 mm^3
[4]; days 0, 7 and 14, day 46
  Median Tumour Volume: 1080 mm^3
[4]; days 0, 7 and 14, day 49
  Median Tumour Volume: 1,169.4 mm^3
[4]; days 0, 7 and 14, day 53
  Median Tumour Volume: 1,262.1 mm^3
[4]; days 0, 7 and 14, day 56
  Median Tumour Volume: 1,521.8 mm^3
[5]
  late apoptotic cells positive for Annexin V and propidium iodide: substantial population of late apoptotic cells
[6]
  IC50: 3.81 nM
[7]; days 0, 7 and 14, day 0
  Median Tumour Volume: 158.5 mm^3
[7]; days 0, 7 and 14, day 3
  Median Tumour Volume: 208.3 mm^3
[7]; days 0, 7 and 14, day 5
  Median Tumour Volume: 279.8 mm^3
[7]; days 0, 7 and 14, day 7
  Median Tumour Volume: 328.5 mm^3
[7]; days 0, 7 and 14, day 10
  Median Tumour Volume: 455.2 mm^3
[7]; days 0, 7 and 14, day 12
  Median Tumour Volume: 614.1 mm^3
[7]; days 0, 7 and 14, day 14
  Median Tumour Volume: 749.8 mm^3
[7]; days 0, 7 and 14, day 17
  Median Tumour Volume: 913 mm^3
[7]; days 0, 7 and 14, day 19
  Median Tumour Volume: 1,233 mm^3
[7]; days 0, 7 and 14, day 21
  Median Tumour Volume: 1,341.4 mm^3
[7]; days 0, 7 and 14, day 24
  Median Tumour Volume: 1,581.4 mm^3
[8]
  colony formation (number of colonies): significant impact
[9]
  melanoma cell proliferation: significant inhibition

## COc1c(C)cc2c(c1O)[C@@H]1[C@@H]3[C@@H]4SC[C@]5(N[C@H](CO)Cc6c5[nH]c5ccccc65)C(=O)OC[C@@H](c5c6c(c(C)c(OC(C)=O)c54)OCO6)N3[C@@H](O)[C@H](C2)N1C [PM14, ecubectedin]
[1]
  sensitivity of non-cancerous Hermes3A immortalized melanocytes compared with the melanoma cells: less sensitive
  IC50: 2.89 nM
[2]; days 0, 7 and 14, day 0
  Median Tumour Volume: 185 mm^3
[2]; days 0, 7 and 14, day 2
  Median Tumour Volume: 173.7 mm^3
[2]; days 0, 7 and 14, day 4
  Median Tumour Volume: 103.2 mm^3
[2]; days 0, 7 and 14, day 7
  Median Tumour Volume: 73.8 mm^3
[2]; days 0, 7 and 14, day 9
  Median Tumour Volume: 68.5 mm^3
[2]; days 0, 7 and 14, day 11
  Median Tumour Volume: 51.2 mm^3
[2]; days 0, 7 and 14, day 14
  Median Tumour Volume: 37.5 mm^3
[2]; days 0, 7 and 14, day 16
  Median Tumour Volume: 40.8 mm^3
[2]; days 0, 7 and 14, day 18
  Median Tumour Volume: 35.3 mm^3
[2]; days 0, 7 and 14, day 21
  Median Tumour Volume: 43.5 mm^3
[2]; days 0, 7 and 14, day 23
  Median Tumour Volume: 55.5 mm^3
[2]; days 0, 7 and 14, day 25
  Median Tumour Volume: 68.5 mm^3
[2]; days 0, 7 and 14, day 28
  Median Tumour Volume: 233.4 mm^3
[2]; days 0, 7 and 14, day 30
  Median Tumour Volume: 547.3 mm^3
[2]; days 0, 7 and 14, day 32
  Median Tumour Volume: 1,044 mm^3
[2]; days 0, 7 and 14, day 35
  Median Tumour Volume: 1,565 mm^3
[2]; days 0, 7 and 14, day 37
  Median Tumour Volume: 1,610.4 mm^3
[3]
  IC50: 1.31 nM
[4]; days 0, 7 and 14, day 0
  Median Tumour Volume: 147.9 mm^3
[4]; days 0, 7 and 14, day 2
  Median Tumour Volume: 225.2 mm^3
[4]; days 0, 7 and 14, day 4
  Median Tumour Volume: 248.4 mm^3
[4]; days 0, 7 and 14, day 7
  Median Tumour Volume: 330.4 mm^3
[4]; days 0, 7 and 14, day 9
  Median Tumour Volume: 361 mm^3
[4]; days 0, 7 and 14, day 11
  Median Tumour Volume: 389.7 mm^3
[4]; days 0, 7 and 14, day 14
  Median Tumour Volume: 407.1 mm^3
[4]; days 0, 7 and 14, day 16
  Median Tumour Volume: 436.4 mm^3
[4]; days 0, 7 and 14, day 18
  Median Tumour Volume: 502 mm^3
[4]; days 0, 7 and 14, day 21
  Median Tumour Volume: 555.5 mm^3
[4]; days 0, 7 and 14, day 23
  Median Tumour Volume: 674.2 mm^3
[4]; days 0, 7 and 14, day 25
  Median Tumour Volume: 757.7 mm^3
[4]; days 0, 7 and 14, day 28
  Median Tumour Volume: 839.8 mm^3
[4]; days 0, 7 and 14, day 30
  Median Tumour Volume: 882.9 mm^3
[4]; days 0, 7 and 14, day 35
  Median Tumour Volume: 863.3 mm^3
[4]; days 0, 7 and 14, day 37
  Median Tumour Volume: 871.8 mm^3
[4]; days 0, 7 and 14, day 39
  Median Tumour Volume: 948.6 mm^3
[4]; days 0, 7 and 14, day 42
  Median Tumour Volume: 1020 mm^3
[4]; days 0, 7 and 14, day 44
  Median Tumour Volume: 1,295.1 mm^3
[4]; days 0, 7 and 14, day 46
  Median Tumour Volume: 1,582.2 mm^3
[5]
  late apoptotic cells positive for Annexin V and propidium iodide: substantial population of late apoptotic cells
[6]
  IC50: 1.15 nM
[7]; days 0, 7 and 14, day 0
  Median Tumour Volume: 158.8 mm^3
[7]; days 0, 7 and 14, day 3
  Median Tumour Volume: 215.5 mm^3
[7]; days 0, 7 and 14, day 5
  Median Tumour Volume: 252.3 mm^3
[7]; days 0, 7 and 14, day 7
  Median Tumour Volume: 372.7 mm^3
[7]; days 0, 7 and 14, day 10
  Median Tumour Volume: 503.6 mm^3
[7]; days 0, 7 and 14, day 12
  Median Tumour Volume: 599.4 mm^3
[7]; days 0, 7 and 14, day 14
  Median Tumour Volume: 797.2 mm^3
[7]; days 0, 7 and 14, day 17
  Median Tumour Volume: 950 mm^3
[7]; days 0, 7 and 14, day 19
  Median Tumour Volume: 1,113.5 mm^3
[7]; days 0, 7 and 14, day 21
  Median Tumour Volume: 1,309.8 mm^3
[7]; days 0, 7 and 14, day 24
  Median Tumour Volume: 1,530.7 mm^3
[8]
  colony formation (number of colonies): significant impact
[9]
  melanoma cell proliferation: significant inhibition
